Test results: patent US12161634B2, “Pyruvate kinase R (PKR) activating compositions” (Novo Nordisk Health Care AG, priority 2020, dated 2024)

Assay: Dynamic vapor sorption (DVS)
Type: physicochemical
Conditions: for hygroscopicity: DVS at RT; for water uptake from 60% RH to 80% RH / water uptake up to 60% RH: DVS; for water uptake from 60% RH to 80% RH / water uptake up to 60% RH / form change before and after DVS test: RT; for water uptake up to 60% RH: up to 60% RH (ambient condition); for form change before and after DVS test: determined by XRPD
Procedure: Dynamic Vapor Sorption (DVS) was measured with a Surface Measurement System (SMS) DVS Intrinsic.

hygroscopicity	water uptake from 60% RH to 80% RH	water uptake up to 60% RH	form change before and after DVS test	SMILES
hygroscopic	0.4%	2.9%	No form change	O=C([C@H](CO)c1ccccc1)N1CC2=C(C1)CN(S(=O)(=O)c1cnc3c(c1)OCCO3)C2 [Type B, (S)-1-(5-[2H,3H-[1,4]dioxino[2,3-b]pyridine-7-sulfonyl]-1H,2H,3H,4H,5H,6H-pyrrolo[3,4-c]pyrrol-2-yl)-3-hydroxy-2-phenylpropan-1-one]
hygroscopic	0.5%	1.8%	No form change	O=C([C@H](CO)c1ccccc1)N1CC2=C(C1)CN(S(=O)(=O)c1cnc3c(c1)OCCO3)C2 [Type C, (S)-1-(5-[2H,3H-[1,4]dioxino[2,3-b]pyridine-7-sulfonyl]-1H,2H,3H,4H,5H,6H-pyrrolo[3,4-c]pyrrol-2-yl)-3-hydroxy-2-phenylpropan-1-one]
